SMILES | melting point
COc1cccc(CC(=O)N/N=C(\C)c2ccc(O)cc2OC)c1 [compound 18] | 160 to 162 °C
O=C(Cc1cccc(F)c1)N/N=C/c1ccc(O)c(F)c1 [compound 20] | 193 to 194 °C
COc1cc(O)ccc1/C=N/NC(=O)Cc1cccc(C(F)(F)F)c1 [compound 22] | 203 to 204 °C
COc1cccc(CC(=O)N/N=C/c2c(C)cc(O)cc2C)c1 [compound 16] | 172 to 173 °C
COc1cc(O)ccc1/C=N/NC(=O)Cc1ccccc1Cl [compound 10] | 134 to 135 °C
COc1cc(O)ccc1/C=N/NC(=O)Cc1ccccc1C [compound 9] | 119 to 120 °C
COc1cccc(CC(=O)N/N=C/c2ccc(OC(C)=O)cc2OC)c1 [compound 21] | 147 to 148 °C
COc1cc(O)ccc1/C=N/NC(=O)Cc1cccc([N+](=O)[O-])c1 [compound 26] | 240 to 241 °C
COc1cc(O)ccc1/C=N/NC(=O)Cc1cccc(C)c1 [compound 8] | 207 to 208 °C
COc1cc(O)ccc1/C=N/NC(=O)Cc1ccc(F)cc1Cl [compound 13] | 242 to 243 °C
COc1cc(O)ccc1/C=N/NC(=O)Cc1cc(O)cc(O)c1 [compound 19] | 246 °C (dec.)
COc1cccc(OCC(=O)N/N=C/c2ccc(O)cc2OC)c1 [compound 25] | 173 to 174 °C
O=C(Cc1ccccc1)N/N=C/c1ccc(O)c(F)c1 [compound 5] | 207 °C
COc1cc(O)ccc1/C=N/NC(=O)Cc1cccc(Cl)c1 [compound 11] | 121 to 122 °C
COc1cc(O)ccc1/C=N/NC(=O)Cc1ccc(Cl)c(Cl)c1 [compound 7] | 232 to 233 °C
COc1cccc(CC(=O)N/N=C/c2ccc(O)cc2O)c1 [compound 24] | 205 to 206 °C
COc1cc(O)ccc1/C=N/NC(=O)Cc1ccc(O)cc1 [compound 6] | 224 °C
COc1cc(O)ccc1/C=N/NC(=O)Cc1ccc(F)cc1 [compound 12] | 184 to 185 °C
COc1cccc(CC(=O)N/N=C/c2ccc(O)c(F)c2)c1 [compound 17] | 190 to 191 °C
COc1cccc(CC(=O)N/N=C/c2ccc(O)cc2OC)c1 [compound 4] | 166 to 167 °C
COc1cc(O)ccc1/C=N/NC(=O)Cc1cccc(F)c1 [compound 14] | 111 to 112 °C
COc1cccc(CC(=O)N/N=C/c2ccc(O)cc2)c1 [compound 15] | 162 to 163 °C
COc1cccc(CCC(=O)N/N=C/c2ccc(O)cc2OC)c1 [compound 23] | 159 to 160 °C

Further lines, results first:

melting point | SMILES
214 to 215 °C | COc1cc(O)ccc1/C=N/NC(=O)Cc1cccc(Br)c1 [compound 33]
194 to 195 °C | COc1cc(O)cc(C)c1/C=N/NC(=O)Cc1cccc(O)c1 [compound 40]
190 to 192 °C | CCOc1cc(O)ccc1/C=N/NC(=O)Cc1cccc(O)c1 [compound 38]
203 to 204 °C | Cc1cc(O)ccc1/C=N/NC(=O)Cc1cccc(O)c1 [compound 37]
224 to 225 °C | COc1cc(O)ccc1/C=N/NC(=O)Cc1cc(F)cc(F)c1 [compound 36]
217 to 218 °C | COc1cc(O)ccc1/C=N/NC(=O)C(O)c1ccccc1 (stereo not shown) [compound 30]
162 to 164 °C | COc1cccc(CC(=O)N/N=C(\C)c2ccc(O)cc2)c1 [compound 34]
178 to 179 °C | COc1cccc(CC(=O)N/N=C/c2cc(Cl)ccc2O)c1 [compound 28]
132 °C | COc1cc(O)ccc1/C=N/NC(=O)Cc1cccc(OS(C)(=O)=O)c1 [compound 35]
213 to 215 °C | COc1cc(O)ccc1/C=N/NC(=O)Cc1ccccc1F [compound 41]
198 to 199 °C | COc1cccc(CC(=O)N/N=C/c2cc([N+](=O)[O-])ccc2O)c1 [compound 29]

— US20070060646A1, “Acylhydrazone derivatives and the use thereof in the inhibition, regulation and/or modulation of kinase signal transduction” (priority 2003, published 2007)
